Experiments:
Assay in all cases: CellTiter-Blue cell viability assay
Type in all cases: cell-based, human
SK-OV-4 = SK-OV-4 ovarian cancer cell line; 72 hours; 50% reduction in growth/viability
From the text: (§1) Ovarian cancer cell lines were obtained from the American Type Culture Collection (Manassas, Va.) (CAOV3, OV90, OVCAR3, SKOV3, TO[…]); from the European Collection of Cell Cultures, Salisbury, UK (A2780CP, A2780S); or from Kyoto University, Kyoto, Japan ([…], Tyknu, and TyknuC is R) or were kind gifts from Dr. Patricia Kruk, Department of Pathology, College of Medicine, University of South Florida, Tampa, Fla., and Susan Murphy, PhD, Dept of OBGYN/Division of GYN Oncology, Duke University, Durham, N.C. […] Cell lines were maintained in RPMI-1640 (Invitrogen, Carlsbad, Calif.) supplemented with 10% fetal bovine serum (Fisher Scientific, Pittsburgh, Pa.), 1% sodium pyruvate, 1% penicillin/streptomycin (Cellgro, Manassas, Va.), and 1% nonessential amino acids (HyClone, Hudson, N.H.). Mycoplasma testing was performed every 6 months following manufacturer's protocol (Lonza, Rockland, Me.). Drug activity was evaluated using a high-throughput CellTiter-Blue cell viability assay. […] After cell adherence, increasing concentrations of cisplatin, carboplatin (Sigma-Aldrich, St. Louis, Mo.), paclitaxel (Sequoia Research Products Ltd., Pangbourne, UK), or carboplatin plus paclitaxel (carbotaxol: constant molar ratio of carboplatin to paclitaxel of 20,000:1) were added to appropriate wells using an automated pipetting station. Four replicate wells were used for each drug concentration and vehicle controls. […] The cells were incubated with the drug for 72 hours, and 5 μL of CellTiter-Blue reagent (Promega Corp) was added to each well. Fluorescence was read at […] using a Synergy 4 microplate reader (Bio-Tek Instruments, Inc., Winooski, Vt.).

M41CSR = M41CSR ovarian cancer cell line; 72 hours; 50% reduction in growth/viability
From the text: as §1

MCAS = MCAS ovarian cancer cell line; 72 hours; 50% reduction in growth/viability
From the text: as §1

OVCAR8 = OVCAR8 ovarian cancer cell line; 72 hours; 50% reduction in growth/viability
From the text: as §1

OVCA429 = OVCA429 ovarian cancer cell line; 72 hours; 50% reduction in growth/viability
From the text: as §1

OVCAR2 = OVCAR2 ovarian cancer cell line; 72 hours; 50% reduction in growth/viability
From the text: as §1

OVCA420 = OVCA420 ovarian cancer cell line; 72 hours; 50% reduction in growth/viability
From the text: as §1

CAOV2 = CAOV2 ovarian cancer cell line; 72 hours; 50% reduction in growth/viability
From the text: as §1

CHIcisR = CHIcisR ovarian cancer cell line; 72 hours; 50% reduction in growth/viability
From the text: as §1

HeyA8 = HeyA8 ovarian cancer cell line; 72 hours; 50% reduction in growth/viability
From the text: as §1

Ovary1847 = Ovary1847 ovarian cancer cell line; 72 hours; 50% reduction in growth/viability
From the text: as §1

OVCAR4 = OVCAR4 ovarian cancer cell line; 72 hours; 50% reduction in growth/viability
From the text: as §1

IMCC3 = IMCC3 ovarian cancer cell line; 72 hours; 50% reduction in growth/viability
From the text: as §1

A2780S = A2780S ovarian cancer cell line; 72 hours; 50% reduction in growth/viability
From the text: as §1

C13 = C13 ovarian cancer cell line; 72 hours; 50% reduction in growth/viability
From the text: as §1

A2780CP = A2780CP ovarian cancer cell line; 72 hours; 50% reduction in growth/viability
From the text: as §1

OVCAR10 = OVCAR10 ovarian cancer cell line; 72 hours; 50% reduction in growth/viability
From the text: as §1

Tyknu = Tyknu ovarian cancer cell line; 72 hours; 50% reduction in growth/viability
From the text: as §1

OVCAR3 = OVCAR3 ovarian cancer cell line; 72 hours; 50% reduction in growth/viability
From the text: as §1

A2008 = A2008 ovarian cancer cell line; 72 hours; 50% reduction in growth/viability
From the text: as §1

TyknuCisR = TyknuCisR ovarian cancer cell line; 72 hours; 50% reduction in growth/viability
From the text: as §1

BG1 = BG1 ovarian cancer cell line; 72 hours; 50% reduction in growth/viability
From the text: as §1

Dov13 = Dov13 ovarian cancer cell line; 72 hours; 50% reduction in growth/viability
From the text: as §1

OVCA433 = OVCA433 ovarian cancer cell line; 72 hours; 50% reduction in growth/viability
From the text: as §1

OVCA432 = OVCA432 ovarian cancer cell line; 72 hours; 50% reduction in growth/viability
From the text: as §1

IMCC5 = IMCC5 ovarian cancer cell line; 72 hours; 50% reduction in growth/viability
From the text: as §1

CAOV3 = CAOV3 ovarian cancer cell line; 72 hours; 50% reduction in growth/viability
From the text: as §1

M41 = M41 ovarian cancer cell line; 72 hours; 50% reduction in growth/viability
From the text: as §1

IGR-OV1 = IGR-OV1 ovarian cancer cell line; 72 hours; 50% reduction in growth/viability
From the text: as §1

OV2008 = OV2008 ovarian cancer cell line; 72 hours; 50% reduction in growth/viability
From the text: as §1

CHI = CHI ovarian cancer cell line; 72 hours; 50% reduction in growth/viability
From the text: as §1

OVCAR5 = OVCAR5 ovarian cancer cell line; 72 hours; 50% reduction in growth/viability
From the text: as §1

## N.N.[Cl][Pt][Cl] [Cisplatin, cisplatin]
SK-OV-4
  IC50: 13 µM
M41CSR
  IC50: 13.5 µM
MCAS
  IC50: 61.3 µM
OVCAR8
  IC50: 75.3 µM
OVCA429
  IC50: 5.8 µM
OVCAR2
  IC50: 3.7 µM
OVCA420
  IC50: 13.7 µM
CAOV2
  IC50: 4.5 µM
CHIcisR
  IC50: 1.3 µM
HeyA8
  IC50: 33.1 µM
Ovary1847
  IC50: 8.7 µM
OVCAR4
  IC50: 20.5 µM
IMCC3
  IC50: 22 µM
A2780S
  IC50: 4.7 µM
C13
  IC50: 17.9 µM
A2780CP
  IC50: 43.8 µM
OVCAR10
  IC50: 32.5 µM
Tyknu
  IC50: 4.8 µM
OVCAR3
  IC50: 1.3 µM
A2008
  IC50: 1.5 µM
TyknuCisR
  IC50: 17.7 µM
BG1
  IC50: 36.4 µM
Dov13
  IC50: 24.6 µM
OVCA433
  IC50: 8.8 µM
OVCA432
  IC50: 1.4 µM
IMCC5
  IC50: 4.9 µM
CAOV3
  IC50: 34.4 µM
M41
  IC50: 12.8 µM
IGR-OV1
  IC50: 1.4 µM
OV2008
  IC50: 3.5 µM
CHI
  IC50: 4.9 µM
OVCAR5
  IC50: 12.9 µM
